The text below walks through data of patent publication US11661410B2 (GLOBAL BLOOD THERAPEUTICS, INC., priority 2017, dated 2023).

The target of one assay is G9a (Homo sapiens (Human), UniProt Q96KQ7). Briefly: G9a AlphaLISA enzymatic activity assay. It counts as biochemical.
Sequence of G9a (Q96KQ7 whole entry): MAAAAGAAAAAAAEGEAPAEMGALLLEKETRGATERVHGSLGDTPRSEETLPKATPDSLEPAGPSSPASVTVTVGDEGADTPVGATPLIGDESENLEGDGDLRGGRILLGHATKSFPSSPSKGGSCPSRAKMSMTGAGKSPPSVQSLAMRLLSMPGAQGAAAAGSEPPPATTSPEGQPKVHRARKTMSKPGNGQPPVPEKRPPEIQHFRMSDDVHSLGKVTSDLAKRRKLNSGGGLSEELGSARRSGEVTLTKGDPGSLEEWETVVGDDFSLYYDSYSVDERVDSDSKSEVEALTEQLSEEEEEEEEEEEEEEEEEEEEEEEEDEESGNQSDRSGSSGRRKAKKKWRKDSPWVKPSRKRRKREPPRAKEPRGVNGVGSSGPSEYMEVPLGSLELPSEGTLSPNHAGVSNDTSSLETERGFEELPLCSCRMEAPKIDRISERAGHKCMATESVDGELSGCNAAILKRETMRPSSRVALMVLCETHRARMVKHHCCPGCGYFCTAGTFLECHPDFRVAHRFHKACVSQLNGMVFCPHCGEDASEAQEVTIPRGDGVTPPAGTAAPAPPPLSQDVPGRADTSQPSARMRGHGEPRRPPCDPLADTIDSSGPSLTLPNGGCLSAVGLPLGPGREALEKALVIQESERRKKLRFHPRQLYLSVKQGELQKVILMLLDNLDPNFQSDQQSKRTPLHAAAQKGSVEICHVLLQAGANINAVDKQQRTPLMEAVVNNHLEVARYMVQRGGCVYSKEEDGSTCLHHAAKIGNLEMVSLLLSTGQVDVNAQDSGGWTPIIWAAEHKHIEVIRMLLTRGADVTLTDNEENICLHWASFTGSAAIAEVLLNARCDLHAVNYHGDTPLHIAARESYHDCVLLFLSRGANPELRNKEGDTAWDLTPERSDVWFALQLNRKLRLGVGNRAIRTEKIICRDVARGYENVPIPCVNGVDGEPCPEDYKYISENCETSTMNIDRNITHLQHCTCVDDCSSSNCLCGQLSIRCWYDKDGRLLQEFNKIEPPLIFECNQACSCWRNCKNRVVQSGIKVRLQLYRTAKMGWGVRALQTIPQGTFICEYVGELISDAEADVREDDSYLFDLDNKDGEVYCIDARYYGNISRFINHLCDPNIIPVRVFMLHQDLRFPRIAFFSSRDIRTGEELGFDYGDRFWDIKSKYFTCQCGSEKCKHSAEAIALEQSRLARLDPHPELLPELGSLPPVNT
Conditions: not given
A general note: Alpha assays give light when donor and acceptor beads are brought close together.
One may read the pIC50 as the IC50 on a negative log10 scale, so that one unit is a factor of ten. The low end stands for a large IC50, the high end for a small IC50. Take `COc1cc2nc3c(c(N[C@@H]4CCCNCC4)c2nc1OC)CCC3` [Example 163, (4R)-N-[2,3-dimethoxy-6H,7H,8H-cyclopenta[b]1,5-naphthyridin-9-yl] azepan-4-amine]: the pIC50 is reported as 6.8. Regarding “N-[(azetidin-3-yl)methyl]-6,7-dimethoxy-1H,2H,3H-cyclopenta[b]quinolin-9-amine—2HCl [Example 8]”, the pIC50 is reported as 7.27.

Still in this assay, the particulars now being: G9a AlphaLISA; negative log of the IC50 value in molar.
Regarding `COc1cc2nc3c(c(N[C@@H]4CCCN(C)C4)c2nc1OC)CCC3` [Example 164, (3R)-N-[2,3-dimethoxy-6H,7H,8H-cyclopenta[b]1,5-naphthyridin-9-yl]-1-methylpiperidin-3-amine], the pIC50 came out at 6.2.

Consider `COc1cc2nc3c(c(N[C@@H]4CCCN(C)CC4)c2nc1OC)CCC3` [Example 165, (4R)-N-{2,3-dimethoxy-6H,7H,8H-cyclopenta[b]1,5-naphthyridin-9-yl}-1-methylazepan-4-amine], for which the pIC50 was 7. With `COc1cc2nc3c(c(N[C@H]4CNC[C@@H](C)C4)c2cc1OC)CCC3` [Example 286, (3R,5S)-N-{6,7-dimethoxy-1H,2H,3H-cyclopenta[b]quinolin-9-yl}-5-methylpiperidin-3-amine], the pIC50 is given as 8. Consider `COc1cc2nc3c(c(N[C@@H]4CCCCNC4)c2nc1OC)CCC3` [Example 402], for which the pIC50 stood at 7.1. `COc1cc2nc3c(c(NCCNC(C)C)c2cc1OC)CCC3` [Example 403, 6,7-dimethoxy-N-{2-[(propan-2-yl)amino]ethyl}-1H,2H,3H-cyclopenta[b]quinolin-9-amine] yielded a pIC50 of 7.5. Turning to `COc1cc2nc3c(c(N[C@@H]4CCCCN(C)C4)c2nc1OC)CCC3` [Example 404, (3R)-N-[2,3-dimethoxy-6H,7H,8H-cyclopenta[b]1,5-naphthyridin-9-yl]-1-methylazepan-3-amine], the pIC50 amounted to 6.6. As usually defined, the IC50 is the concentration that gives 50% inhibition. The low end stands for inhibition by little substance, the high end for a need for much substance. `[2H]C([2H])([2H])Oc1cc2nc3c(c(N[C@@H]4CCCNC4)c2cc1OC([2H])([2H])[2H])CCC3` [Example 405, (3R)-N-[6,7-di(2H3)methoxy-1H,2H,3H-cyclopenta[b]quinolin-9-yl]piperidin-3-amine] had an IC50 of 0.0126 µM. In other words, the double-digit nanomolar range. Take `CCOc1cc2nc3c(c(N[C@@H]4CCCNC4)c2cc1OCC)CCC3` [Example 406, (3R)-N-[6,7-di(2H3)ethoxy-1H,2H,3H-cyclopenta[b]quinolin-9-yl]piperidin-3-amine]: the IC50 is more than 10 µM. For the compound `CCOc1cc2nc3c(c(N[C@@H]4CCCNC4)c2cc1OC)CCC3` [Example 407, (3R)-N-{6-ethoxy-7-methoxy-1H,2H,3H-cyclopenta[b]quinolin-9-yl}piperidin-3-amine], the pIC50 amounted to 7. On to `COc1cc2nc3c(c(N[C@@H]4CNC[C@H](C)C4)c2cc1OC)CCC3` [Example 408, (3S,5R)-N-{6,7-dimethoxy-1H,2H,3H-cyclopenta[b]quinolin-9-yl}-5-methylpiperidin-3-amine], for which the negative logarithm of the IC50 (pIC50) came to 6.9. As to `COc1cc2nc3c(c(N[C@H]4CNC[C@H](C)C4)c2cc1OC)CCC3` [Example 409, (3R,5R)-N-{6,7-dimethoxy-1H,2H,3H-cyclopenta[b]quinolin-9-yl}-5-methylpiperidin-3-amine], the pIC50 was 7.9.

As for `COc1cc2nc3c(c(N[C@H]4CNCC(F)(F)C4)c2cc1OC)CCC3` [Example 410, (3R)-N-{6,7-dimethoxy-1H,2H,3H-cyclopenta[b]quinolin-9-yl}-5,5-difluoropiperidin-3-amine], the IC50 was more than 10 µM. `COc1cc2nc3c(c(NC[C@@H]4C[C@H](F)CN4)c2cc1OC)CCC3` [Example 411, N-{[(2S,4S)-4-fluoropyrrolidin-2-yl]methyl}-6,7-dimethoxy-1H,2H,3H-cyclopenta[b]quinolin-9-amine] registered a pIC50 of 6.3. On the same count and under the same terms, under `COc1cc2nc3c(c(N[C@H]4CNC[C@@H](F)C4)c2cc1OC)CCC3` [Example 412, (3R,5S)-N-{6,7-dimethoxy-1H,2H,3H-cyclopenta[b]quinolin-9-yl}-5-fluoropiperidin-3-amine] stands 6.5. In turn, `COc1cc2nc3c(c(N[C@@H]4CNCC(F)(F)C4)c2cc1OC)CCC3` [Example 413, (3S)-N-{6,7-dimethoxy-1H,2H,3H-cyclopenta[b]quinolin-9-yl}-5,5-difluoropiperidin-3-amine] had an IC50 of more than 10 µM. The compound `COc1cc2nc3c(c(N[C@H]4CNCC(C)(C)C4)c2cc1OC)CCC3` [Example 414, (3R)-N-{6,7-dimethoxy-1H,2H,3H-cyclopenta[b]quinolin-9-yl}-5,5-dimethylpiperidin-3-amine] gave a pIC50 of 7.2.

`COc1cc2nc3c(c(N[C@@H]4CNCC(C)(C)C4)c2cc1OC)CCC3` [Example 415, (3S)-N-{6,7-dimethoxy-1H,2H,3H-cyclopenta[b]quinolin-9-yl}-5,5-dimethylpiperidin-3-amine] gave an IC50 of more than 10 µM. Take `COc1cc2nc3c(c(N[C@H]4CNC[C@H](F)C4)c2cc1OC)CCC3` [Example 416, (3R,5R)-N-{6,7-dimethoxy-1H,2H,3H-cyclopenta[b]quinolin-9-yl}-5-fluoropiperidin-3-amine]: the pIC50 turned out to be 6.9.

The target of another assay is muscarinic M2 receptor (Homo sapiens (Human), UniProt P08172). Briefly: Safety pharmacological profiling: muscarinic M2 receptor ligand binding. As to conditions: compound at 10 μM, in duplicate; ligand binding to cell membranes; read-out: Muscarinic M2 percent inhibition.
Sequence of muscarinic M2 receptor (P08172 whole entry): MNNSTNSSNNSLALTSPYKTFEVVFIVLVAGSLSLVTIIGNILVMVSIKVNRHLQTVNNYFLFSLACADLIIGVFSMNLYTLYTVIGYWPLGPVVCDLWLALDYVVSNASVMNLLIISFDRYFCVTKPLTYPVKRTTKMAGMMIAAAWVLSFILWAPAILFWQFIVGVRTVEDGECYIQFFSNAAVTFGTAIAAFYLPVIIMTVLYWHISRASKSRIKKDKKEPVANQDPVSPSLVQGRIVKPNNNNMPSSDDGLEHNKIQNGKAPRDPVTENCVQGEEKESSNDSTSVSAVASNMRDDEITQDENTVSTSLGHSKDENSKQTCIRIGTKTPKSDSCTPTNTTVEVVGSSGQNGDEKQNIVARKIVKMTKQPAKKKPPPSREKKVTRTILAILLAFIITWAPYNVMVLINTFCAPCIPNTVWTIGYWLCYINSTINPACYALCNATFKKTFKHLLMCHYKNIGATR
In general, inhibition refers to the share of the control response that was lost under treatment. For `COc1cc2nc3c(c(NC4CCN(C(C)C)CC4)c2cc1OC)CCC3`, the inhibition at 10 µM turned out to be 78%. `COc1cc2c(NC(C)C)c3c(nc2cc1OCCCN1CCCC1)CCC3` [drawing 582]: the inhibition at 10 µM was 51%.

On to `CCNc1c2c(nc3cc(OCCCN4CCCC4)c(OC)cc13)CCC2` [drawing 583], for which the inhibition at 10 µM is 62%.

Consider `COc1cc2nc3c(c(NCC4CNC4)c2cc1OC)CCC3` [drawing 585], for which the inhibition at 10 µM turned out to be 65%. Consider `COc1cc2nc3c(c(N[C@@H]4CCCNC4)c2cc1OC)CCC3` [drawing 586], for which the inhibition at 10 µM was 76%. Turning to `COc1cc2nc3c(c(NC4CCNCC4)c2cc1OC)CCC3` [drawing 587], the inhibition at 10 µM was found to be 62%. Same read-out and setting: to `COc1cc2nc3c(c(N[C@H]4CNC[C@@H](C)C4)c2cc1OC)CCC3` [drawing 588] belongs 75%; to `COc1cc2nc3c(c(N[C@@H]4CCCCNC4)c2cc1OC)CCC3` [drawing 589], 80%.

The next assay has as its target mu (μ) opiate (OP3) receptor (Homo sapiens (Human), UniProt P35372). Briefly: biochemical. It counts as binding. As to conditions: read-out: Mu Opiate percent inhibition.
For `COc1cc2c(NC(C)C)c3c(nc2cc1OCCCN1CCCC1)CCC3` [drawing 590], the inhibition at 10 µM was 92%. Turning to `CCNc1c2c(nc3cc(OCCCN4CCCC4)c(OC)cc13)CCC2` [drawing 591], the inhibition at 10 µM came out at 92%. On to `COc1cc2nc3c(c(NCC4CNC4)c2cc1OC)CCC3` [drawing 593], for which the inhibition at 10 µM was determined as 12%. Turning to `COc1cc2nc3c(c(N[C@@H]4CCCNC4)c2cc1OC)CCC3` [drawing 594], the inhibition at 10 µM came to 44%. With `COc1cc2nc3c(c(NC4CCNCC4)c2cc1OC)CCC3` [drawing 595], the inhibition at 10 µM was determined as 48%. For `COc1cc2nc3c(c(N[C@H]4CNC[C@@H](C)C4)c2cc1OC)CCC3` [drawing 596], the inhibition at 10 µM came out at 23%. `COc1cc2nc3c(c(N[C@@H]4CCCCNC4)c2cc1OC)CCC3` [drawing 597]: the inhibition at 10 µM stood at 73%.
